Reference: publication PMC10850208, “Engineering amino acid residues of pentacyclic triterpene synthases for improving the activity” (Applied Microbiology and Biotechnology, 2024)

What was measured:
Experiment in all cases: product titer in engineered yeast by UHPLC
Type in all cases: cell-based
[1] = target: T1, MdOSC1 (α-amyrin synthase from Malus × domestica) (Malus domestica, UniProt C7SCX0); settings: endogenous substrate of S. cerevisiae, not added; 30 °C, 72 h shake flask; mixed product with β-amyrin
T1 construct: gene OSC1; synthesized gene, one copy integrated in the genome of S. cerevisiae SP1, PGK1 promoter; whole-cell production

[2] = target: T2, GgbAS (β-amyrin synthase from Glycyrrhiza glabra) (Glycyrrhiza glabra, UniProt Q9MB42); settings: endogenous substrate of S. cerevisiae, not added; 30 °C, 72 h shake flask
T2 construct: gene bAS1; synthesized gene, one copy integrated in the genome of S. cerevisiae SP1, PGK1 promoter; whole-cell production

[3] = target: T3, OEW (lupeol synthase from Olea europaea) (Olea europaea, UniProt Q9SLW3); settings: endogenous substrate of S. cerevisiae, not added; 30 °C, 72 h shake flask
T3 construct: synthesized gene, one copy integrated in the genome of S. cerevisiae SP1, PGK1 promoter; whole-cell production
T3 sequence (Q9SLW3 1-758): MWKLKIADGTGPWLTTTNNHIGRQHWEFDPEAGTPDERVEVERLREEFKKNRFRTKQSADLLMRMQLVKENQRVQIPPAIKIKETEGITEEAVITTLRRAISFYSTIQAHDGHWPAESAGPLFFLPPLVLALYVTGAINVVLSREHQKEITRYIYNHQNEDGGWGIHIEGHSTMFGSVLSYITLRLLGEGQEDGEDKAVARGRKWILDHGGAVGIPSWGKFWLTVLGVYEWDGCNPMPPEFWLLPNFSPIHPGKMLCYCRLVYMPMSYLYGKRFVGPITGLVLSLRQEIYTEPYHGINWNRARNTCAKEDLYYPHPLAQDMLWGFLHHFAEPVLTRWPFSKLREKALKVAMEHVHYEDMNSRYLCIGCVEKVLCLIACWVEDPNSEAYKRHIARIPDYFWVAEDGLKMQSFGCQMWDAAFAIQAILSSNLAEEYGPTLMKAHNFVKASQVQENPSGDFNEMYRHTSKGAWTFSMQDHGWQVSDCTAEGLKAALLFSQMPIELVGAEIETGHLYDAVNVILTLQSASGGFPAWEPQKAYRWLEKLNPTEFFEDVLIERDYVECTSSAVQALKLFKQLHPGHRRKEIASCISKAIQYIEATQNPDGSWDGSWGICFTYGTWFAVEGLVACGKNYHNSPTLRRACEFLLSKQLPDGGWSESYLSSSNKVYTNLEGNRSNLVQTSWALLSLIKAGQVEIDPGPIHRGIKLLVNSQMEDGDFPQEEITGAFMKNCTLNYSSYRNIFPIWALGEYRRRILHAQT

T1 sequence (C7SCX0 entry or part of it): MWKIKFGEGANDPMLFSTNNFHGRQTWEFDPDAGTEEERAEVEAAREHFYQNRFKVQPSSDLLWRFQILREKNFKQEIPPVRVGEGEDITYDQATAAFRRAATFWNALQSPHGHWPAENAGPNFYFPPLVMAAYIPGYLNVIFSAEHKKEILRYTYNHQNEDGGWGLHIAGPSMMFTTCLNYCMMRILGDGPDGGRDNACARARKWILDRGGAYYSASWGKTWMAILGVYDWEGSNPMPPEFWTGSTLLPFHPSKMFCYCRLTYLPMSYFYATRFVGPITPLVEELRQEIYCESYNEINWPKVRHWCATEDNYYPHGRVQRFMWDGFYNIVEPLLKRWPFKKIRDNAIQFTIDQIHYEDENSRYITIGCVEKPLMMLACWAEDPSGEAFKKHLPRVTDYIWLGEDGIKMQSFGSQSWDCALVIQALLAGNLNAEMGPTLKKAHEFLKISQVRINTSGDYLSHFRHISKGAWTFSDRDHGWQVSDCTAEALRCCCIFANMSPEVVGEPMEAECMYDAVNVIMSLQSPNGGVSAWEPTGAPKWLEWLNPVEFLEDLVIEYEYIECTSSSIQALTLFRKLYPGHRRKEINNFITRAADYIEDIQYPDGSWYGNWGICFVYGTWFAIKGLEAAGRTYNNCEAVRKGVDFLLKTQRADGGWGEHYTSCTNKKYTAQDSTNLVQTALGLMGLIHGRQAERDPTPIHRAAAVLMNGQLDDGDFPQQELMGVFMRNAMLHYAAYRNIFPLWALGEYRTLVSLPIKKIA
T2 sequence (Q9MB42 whole entry): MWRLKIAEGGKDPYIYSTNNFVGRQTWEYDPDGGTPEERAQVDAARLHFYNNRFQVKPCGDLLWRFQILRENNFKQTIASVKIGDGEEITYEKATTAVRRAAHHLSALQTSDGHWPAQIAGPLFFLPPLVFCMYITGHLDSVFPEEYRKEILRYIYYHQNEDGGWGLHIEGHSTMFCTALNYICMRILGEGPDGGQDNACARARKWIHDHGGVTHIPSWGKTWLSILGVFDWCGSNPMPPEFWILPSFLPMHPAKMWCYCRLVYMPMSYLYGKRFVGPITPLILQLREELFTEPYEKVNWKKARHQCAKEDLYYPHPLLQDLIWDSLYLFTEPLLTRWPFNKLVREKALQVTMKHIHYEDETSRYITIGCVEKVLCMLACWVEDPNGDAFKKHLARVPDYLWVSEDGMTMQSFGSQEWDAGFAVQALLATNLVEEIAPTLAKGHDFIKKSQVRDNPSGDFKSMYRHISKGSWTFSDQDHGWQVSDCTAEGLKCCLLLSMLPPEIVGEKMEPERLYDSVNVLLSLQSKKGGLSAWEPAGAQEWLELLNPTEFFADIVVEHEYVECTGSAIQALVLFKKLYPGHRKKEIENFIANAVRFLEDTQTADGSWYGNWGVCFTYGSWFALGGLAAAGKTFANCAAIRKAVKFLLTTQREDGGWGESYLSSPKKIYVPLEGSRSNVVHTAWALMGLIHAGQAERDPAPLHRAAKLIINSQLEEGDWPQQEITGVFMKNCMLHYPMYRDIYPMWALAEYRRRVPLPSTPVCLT

Compound: C[C@H]1[C@H](C)CC[C@]2(C)CC[C@]3(C)C(=CC[C@@H]4[C@@]5(C)CC[C@H](O)C(C)(C)[C@@H]5CC[C@]43C)[C@H]12 [α-amyrin]
- product titer in engineered yeast by UHPLC [1]: increase in the titer of α-amyrin and β-amyrin, compared with these of the strain SP1

Compound: CC1(C)CC[C@]2(C)CC[C@]3(C)C(=CC[C@@H]4[C@@]5(C)CC[C@H](O)C(C)(C)[C@@H]5CC[C@]43C)[C@@H]2C1 [β-amyrin]
- product titer in engineered yeast by UHPLC [2]: higher titer and specific titer of β-amyrin than these of strain SP1 harboring the wild-type GgbAS

Compound: C=C(C)[C@@H]1CC[C@]2(C)CC[C@]3(C)[C@H](CC[C@@H]4[C@@]5(C)CC[C@H](O)C(C)(C)[C@@H]5CC[C@]43C)[C@@H]12 [lupeol]
- product titer in engineered yeast by UHPLC [3]: increase in the production of lupeol compared with that of the strain SP1 harboring
